These results are taken from PMC7754465, “Multiparameter Kinetic Analysis for Covalent Fragment Optimization by Using Quantitative Irreversible Tethering (qIT)” (Chembiochem, 2020).

Structures are written as SMILES. Entries after “also recorded” stand apart in the source; their conditions may differ.

For this assay, the target named is T1, pCdk2(ES)/cyclin A holoenzyme (Homo sapiens, UniProt P24941, C177A/F80C).
T1 construct: GST (N, cleaved yes); made in house; host or cells: E. coli Tuner(DE3); Cdk2 phosphorylated in vitro with GST-CAK1 (S. cerevisiae)
Description: spectrophotometric coupled (LDH/PK) kinase assay after labelling and dialysis. Type of assay: biochemical. As to conditions: treatment with 0.5 mM acrylamide, then dialysis to remove ligand. From the text: Next we undertook biochemical validation of the electrophile sensitive approach using a spectrophotometric kinase assay. In this experiment the activity of Cdk2 is activated both by phosphorylation and interaction with cyclin A. The catalytic turnover of ATP is coupled to the oxidation of NADH by lactate dehydrogenase (LDH) and pyruvate kinase (PK), which is monitored by absorbance at 340 nm.
H. Intact-protein mass spectrometry
Protein-mass data were obtained on a Waters micromass LC-TOF mass spectrometer in positive ion mode using electrospray ionization. Samples were chromatographed using an Acquity UPLC protein BEH C4 column (2.1 mm × 50 mm, 2.7 µm) with a flow rate of 30 µL/min. The injection volume was 5 µL of protein solution (5 µM) in 30 mM ammonium bicarbonate buffer con-taining 0.5% formic acid and 20% MeOH. The gradient used was 100% mobile phase A (0.1% formic acid in water/MeOH (19:1)) ramping linearly to 90% mobile phase B (0.1% formic acid in MeOH) over 5 minutes. […]
4EK3) and the model was iteratively refined using Phenix.Refine[13] with manual modelling and adjustments carried out in COOT[14]. […] Electron density maps were calculated using FFT[17] and figures were prepared using PyMol (Schrö dinger). […]

Consider `C=CC(=O)Nc1ccc(-c2ncccn2)cc1` [S1], for which the “inhibition of kinase activity” value is given as “complete irreversible inhbition”. With `C=CC(=O)N1CCCc2cc(C(=O)OC)ccc21` [compound 1], the “inhibition of kinase activity” value is recorded as “complete irreversible inhbition; also recorded: complete inhibition”.
